{"source": "patent US6589992B2", "about": "“Inhibiting collagen-induced platelet aggregation” (Parker Hughes Institute, priority 1999, dated 2003)", "key": {"[1]": {"molecular_target": "T1, SRC (Homo sapiens, UniProt P12931)", "T1 construct": "endogenous in cells; host or cells: platelets", "T1 sequence (P12931 whole entry)": "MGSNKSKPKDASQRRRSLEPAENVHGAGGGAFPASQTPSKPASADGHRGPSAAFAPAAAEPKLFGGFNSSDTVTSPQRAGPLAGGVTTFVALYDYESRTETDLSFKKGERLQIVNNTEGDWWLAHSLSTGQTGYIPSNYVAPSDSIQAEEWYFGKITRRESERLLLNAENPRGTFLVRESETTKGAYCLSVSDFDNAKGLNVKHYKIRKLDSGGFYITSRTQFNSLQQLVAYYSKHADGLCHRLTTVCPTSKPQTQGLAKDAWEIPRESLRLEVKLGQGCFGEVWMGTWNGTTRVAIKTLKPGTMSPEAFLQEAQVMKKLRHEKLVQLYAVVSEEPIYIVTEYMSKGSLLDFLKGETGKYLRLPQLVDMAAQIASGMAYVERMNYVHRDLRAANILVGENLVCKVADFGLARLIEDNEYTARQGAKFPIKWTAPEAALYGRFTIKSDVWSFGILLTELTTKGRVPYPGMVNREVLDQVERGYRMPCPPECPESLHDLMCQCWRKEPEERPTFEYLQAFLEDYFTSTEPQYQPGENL", "assay": "SRC activity in platelets", "format": "cell-based", "conditions": "data not shown"}, "[2]": {"tested_on": "platelets", "assay": "Collagen-induced calcium mobilization in platelets (fluorescence)", "format": "cell-based, human", "conditions": "100 μM; collagen 20 μg/ml", "experimental": "Platelets were loaded with […] (Molecular Probes, Eugene Oreg.) for 15 minutes at 37 degrees C. […] The changes in fluorescence were monitored on a spectrofluorimeter."}, "[3]": {"tested_on": "mice", "assay": "Tail bleeding time in mice", "format": "in vivo", "experimental": "Mice were placed in a tube holder and tail bleeding was performed with a 2 mm cut from the protruding tail tip, the tail was placed vertically into 10 mL normal saline in a 37° C. water bath and bleeding times determined as previously described (Teng et al., 1997). Platelet plug formation and clotting times on the eye after retro-orbital venupuncture were evaluated using published methods (Sheu et al., 1995)."}, "[4]": {"tested_on": "platelets", "assay": "Serotonin release from collagen-stimulated platelets", "format": "cell-based, human", "conditions": "LFM-A13 treated, N=4", "experimental": "Release of serotonin from collagen (10 and 20 μg/mL)-stimulated platelets was measured using a serotonin detection kit (Immunotech, Marseille, France) according to the manufacturer's specifications. Sonicated platelets were used for measurement of the total serotonin content of platelets."}, "[5]": {"assay": "Pharmacokinetics in mice (HPLC plasma levels)", "conditions": "mouse, in vivo", "experimental": "All collected blood samples were heparinized and centrifuged at 7,000xg for 5 minutes in a microcentrifuge to obtain plasma. The plasma samples were stored at −20° C. until analysis.\nThe analytical column was equilibrated and eluted under isocratic conditions utilizing a flow rate of 1.0 mL/min at ambient temperature. The wavelength of detection was set at 294 nm. Peak width, response time, and slit were set at >0.03 min, 0.55 sec, and […], respectively. […] Following centrifugation at 300xg for 5 minutes, the supernatant was used for HPLC analysis using a system comprised of a Hewlett Packard (HP) series 1100 instrument equipped with an automated electronic degasser, a quaternary pump, an autosampler, an automatic thermostatic column compartment, diode array detector and a computer with a Chemstation software program for data analysis (Chen and Uckun, 1999; Malaviya et al., 2000). All extraction procedures were carried out at room temperature.\nThe unweighed linear regression analysis of the standard curves was performed by using the CA-Cricket Graph III computer program, Version 1.0 (Computer Association, Inc., Islandia, N.Y.). […] Pharmacokinetic modeling and pharmacokinetic parameter estimations were carried out using the pharmacokinetics software, WinNonlin Program, Professional version 3.0 (Pharsight Inc., Mountain view, Calif.) (Chen and Uckun, 1999; Malaviya et al. 2000; Uckun et al., 1999).\nThe elimination half-life was estimated by linear regression analysis of the terminal phase of the plasma concentration time profile. The area under the concentration time curve (AUC) was calculated by the linear trapezoidal rule between the first (0 hours) and last sampling time plus C/k, where C is the concentration at the last sampling time and k is the elimination rate constant. The systemic clearance (CL) was determined by dividing the does by the AUC (Chen and Uckun, 199; Malaviya et al., 2000; Uckun et al., 1999).\nA one-compartment, first order pharmacokinetic model was fit into the pharmacokinetic data. The numbers represent the average values estimated from the composite plasma concentration-time curve for pooled data. The mean±SEM values are indicated in parentheses. The values for the apparent volume of distribution (Vc) and systemic clearance (CL) were not corrected for bioavailability. t½=terminal elimination half-life; tmax=the time required to reach the maximum plasma drug concentration after i.p. administration."}, "[6]": {"molecular_target": "BTK (Homo sapiens, UniProt Q06187)", "sequence (Q06187 whole entry)": "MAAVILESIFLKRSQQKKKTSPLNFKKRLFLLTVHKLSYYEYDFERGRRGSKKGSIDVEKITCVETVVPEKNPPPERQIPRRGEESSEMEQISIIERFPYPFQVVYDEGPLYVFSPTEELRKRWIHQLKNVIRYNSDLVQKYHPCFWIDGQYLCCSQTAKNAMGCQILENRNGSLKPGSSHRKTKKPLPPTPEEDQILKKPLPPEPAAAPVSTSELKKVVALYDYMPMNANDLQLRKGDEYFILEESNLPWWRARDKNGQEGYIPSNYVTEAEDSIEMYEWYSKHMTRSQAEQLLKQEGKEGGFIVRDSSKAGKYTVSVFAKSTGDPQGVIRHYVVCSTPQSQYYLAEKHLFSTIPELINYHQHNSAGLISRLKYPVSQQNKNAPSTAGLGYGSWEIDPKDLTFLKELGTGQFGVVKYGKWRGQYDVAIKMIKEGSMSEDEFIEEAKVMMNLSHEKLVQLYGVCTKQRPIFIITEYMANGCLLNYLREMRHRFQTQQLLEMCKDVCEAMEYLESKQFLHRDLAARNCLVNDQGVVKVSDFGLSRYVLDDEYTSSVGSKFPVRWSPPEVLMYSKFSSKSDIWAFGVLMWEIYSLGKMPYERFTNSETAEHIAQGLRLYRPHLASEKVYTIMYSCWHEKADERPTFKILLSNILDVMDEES", "assay": "BTK immune complex kinase assay from collagen-stimulated platelets", "conditions": "100 μM", "procedure": "Platelets were isolated from platelet rich plasma (PRP) purchased from the Memorial Blood Bank (Minneapolis, Minn.) as previously described (Asselin et al. 1997) and used at a concentration of 3×10^9 cells/mL in a modified Tyrode's buffer (137 mM NaCl, 2.7 mM KCl, 0.9 mM MgCl2, 5.5 mM glucose, 3.3 mM NaH2PO4, 3.8 mM Hepes, pH 7.4). […] Platelets were then stimulated at 37° C. with 2 μg/mL (or 10 μg/mL) collagen or 0.1 U/mL thrombin (Chronolog Inc., Philadelphia, Pa.). Stimulation was stopped and platelets were lysed at the indicated time points by adding ice cold 3x Triton X-100 lysis buffer (150 mM NaCl, 15 mM EGTA, 3% Triton X-100, 3% Sodium deoxycholate, 0.3% SDS, 3 mM PMSF, 3 mM Na3 VO4, 60 μg/mL leupeptin, 60 μg/mL aprotinin, 50 mM Tris-HCl pH 7.4) and incubating for 1 hour on ice. Following removal of the membranous fraction by centrifugation (12,000xg, 30 min) the samples were subjected to immunoprecipitation utilizing antibodies raised against BTK (Santa Cruz Biotechnologies, Santa Cruz, Calif.), TEC (Upstate Biotechnology, Lake Placid, N.Y.) and PLCγ2 (Santa Cruz Biotechnologies, Santa Cruz, Calif.) (Vassilev et al., 1999). Immunoprecipitations, immune-complex protein kinase assays, and immunoblotting on PVDF membranes (Milipore, Bedford, Mass.) using the ECL chemiluminescence detection system (Amersham Life Sciences, Arlington Heights, Ill.) were conducted as described previously (Mahajan et al., 1999; Sudbeck et al., 1999; Uckun et al., 1996a; Uckun et al., 1996b).\nFor immunoblotting, antibodies against phosphotyrosine (Transduction Labs, Lexington, Ky.), BTK (Santa Cruz Biotechnologies, Santa Cruz, Calif.), TEC (Upstate Biotechnology, Lake Placid, N.Y.) and PLCγ2 (Santa Cruz Biotechnologies, Santa Cruz, Calif.) were used. Horse radish peroxidase-conjugated sheep anti-mouse, donkey anti-rabbit secondary antibodies were purchased from Transduction Laboratories (Lexington, Ky.). Horse radish peroxidase-conjugated sheep anti-goat antibodies were purchased from Santa Cruz (Santa Cruz, Calif.). Following electrophoresis, kinase gels were dried onto Whatman 3M filter paper and subjected to phosphoimaging on a Molecular Imager (Bio-Rad, Hercules, Calif.) as well as autoradiography on film. Similarly, all chemiluminescent BTK/TEC Western blots were subjected to three dimensional densitometric scanning using the Molecular Imager and Imaging Densitometer using the Molecular Analyst/Macintosh version 2.1 software following the specifications of the manufacturer (Bio-Rad).\nAntibodies raised against BTK and TEC utilized for immunoprecipitations and Western blot analysis were purchased from Santa Cruz (Santa Cruz, Calif.).\nFor each drug concentration, a BTK/TEC kinase activity index as determined by comparing the ratios of the kinase activity in phosphorimager units (PIU) and density of the protein bands in densitometric scanning units (DSU) to those of the baseline sample and using the formula: Activity Index=[PIU of kinase band/DSU of BTK/TEC protein band]test sample: [PIU of kinase band/DSU of BTK/TEC protein band]baseline control sample (FIGS. 1A-1D).\nThe samples were subjected to immunoprecipitation utilizing antibodies raised against BTK. The BTK immune complexes were subjected to immune kinase assays."}, "[7]": {"tested_on": "platelets", "assay": "Inositol-1,4,5-trisphosphate production in collagen-stimulated platelets", "format": "cell-based, human", "experimental": "Collagen stimulation was terminated by the addition of ice-cold 20% perchloric acid. Inositol-1,4,5,-trisphosphate (Ins-1,4,5-P3) levels were measured by using a D-myo-[^3H]inositol-1,4,5-trisphosphate assay system purchased from Amersham (Arlington Heights, Ill.), as reported (Uckun et al., 1991) (FIG. 2B). This highly sensitive assay is based on the competition between nonradiolabeled Ins-1,4,5-P3 in the cellular extracts and a fixed quantity of a high specific activity [^3H] Ins-1,4,5-P3 tracer for a limited number of binding sites on a Ins-1,4,5-P3-specific and sensitive bovine adrenal binding protein (Uckun et al., 1991).\nPlatelets were stimulated at 37 degrees C. with 2 μg/ml collagen for various times. Activation was stopped by the addition of ice cold 20% perchloric acid. The amount of inositol 1,4,5-triphosphate production was measured using a detection kit from Amersham."}, "[8]": {"tested_on": "platelets", "assay": "Collagen-induced platelet aggregation (aggregometer)", "format": "cell-based, human", "conditions": "for IC50: 30 min pretreatment", "experimental": "Platelet aggregation with respect to control was monitored in a Chronolog Model 560 Dual Chamber Platelet Aggregometer.\nControls were treated with vehicle (PBS supplemented with 1% DMSO) alone. The treated PRP samples were diluted 1:4 with sterile normal saline and platelets were stimulated with collagen (2 μg/mL or 5 μg/mL, Chronolog Inc., Philadelphia, Pa.) or thrombin (0.1 U/mL, Chronolog Inc., Philadelphia, Pa.) as agonists under stirred conditions. Platelet aggregation was monitored in a platelet aggregometer (Model 560 Dual Chamber-Instrument, Chronolog Ind., Philadelphia, Pa.) for 5 minutes."}, "[9]": {"conditions": "30 min, 0 seconds after 2 μg/ml collagen"}, "[10]": {"conditions": "30 min, 90 seconds after 2 μg/ml collagen"}}, "note": "Entries after “also recorded” stand apart in the source; their conditions may differ. Where two headings read alike, the source gives them in different places."}
{"smiles": "C/C(O)=C(\\C#N)C(=O)Nc1cc(Br)ccc1Br", "note": "[LFM-A13, α-cyano-β-hydroxy-β-methyl-N-(2,5-dibromophenyl)-propenamide]", "values": [{"measurement": "baseline and collagen-induced SRC activity in platelets", "setting": "[1]", "result": "did not inhibit the baseline activity of SYK or SRC or prevent collagen-induced SYK and SRC activation"}, {"measurement": "collagen-induced calcium mobilization", "setting": "[2]", "result": "significantly reduced"}, {"measurement": "prolongation of tail bleeding time versus vehicle", "setting": "[3]; 20 mg/kg", "result": 4.9, "unit": "fold"}, {"measurement": "average tail bleeding time", "setting": "[3]; 20 mg/kg i.v., N=5", "result": "7.4 ± 1.0", "unit": "min"}, {"measurement": "prolongation of tail bleeding time versus vehicle", "setting": "[3]; 40 mg/kg", "result": 5.6, "unit": "fold"}, {"measurement": "average tail bleeding time", "setting": "[3]; 40 mg/kg i.v., N=5", "result": "8.5 ± 0.6", "unit": "min"}, {"measurement": "prolongation of tail bleeding time versus vehicle", "setting": "[3]; 80 mg/kg", "result": 6.3, "unit": "fold"}, {"measurement": "average tail bleeding time", "setting": "[3]; 80 mg/kg i.v., N=12", "result": "9.5 ± 0.5", "unit": "min"}, {"measurement": "serotonin in platelet supernatants", "setting": "[4]", "result": "369 ± 14", "unit": "nM"}, {"measurement": "AUC", "setting": "[5]; ip, 10 mg/kg", "result": "66.3 ± 3", "unit": "µM·h"}, {"measurement": "Cmax", "setting": "[5]; ip, 10 mg/kg", "result": "94 ± 8", "unit": "µM"}, {"measurement": "AUC", "setting": "[5]; ip, 20 mg/kg", "result": "183 ± 14", "unit": "µM·h"}, {"measurement": "Cmax", "setting": "[5]; ip, 20 mg/kg", "result": "243 ± 16", "unit": "µM"}, {"measurement": "AUC", "setting": "[5]; ip, 25 mg/kg", "result": "308 ± 31", "unit": "µM·h"}, {"measurement": "Cmax", "setting": "[5]; ip, 25 mg/kg", "result": "383 ± 35", "unit": "µM"}, {"measurement": "AUC", "setting": "[5]; ip, 40 mg/kg", "result": "653 ± 47", "unit": "µM·h"}, {"measurement": "Cmax", "setting": "[5]; ip, 40 mg/kg", "result": "640 ± 44", "unit": "µM"}, {"measurement": "AUC", "setting": "[5]; ip, 50 mg/kg", "result": "1020 ± 31", "unit": "µM·h"}, {"measurement": "Cmax", "setting": "[5]; ip, 50 mg/kg", "result": "940 ± 16", "unit": "µM"}, {"measurement": "AUC", "setting": "[5]; iv, 25 mg/kg", "result": "384 ± 30", "unit": "µM·h"}, {"measurement": "Cmax", "setting": "[5]; iv, 25 mg/kg", "result": "731 ± 22", "unit": "µM"}, {"measurement": "DSU (density of BTK protein band, densitometric scanning units)", "setting": "[6]; [9]", "result": 1236}, {"measurement": "PIU (BTK autophosphorylation, phosphorimager units)", "setting": "[6]; [9]", "result": 78}, {"measurement": "BTK kinase activity in collagen-stimulated platelets", "setting": "[6]; 30 min, 2 μg/mL collagen", "result": "completely prevented collagen-induced stimulation of BTK; also recorded: significantly inhibited BTK kinase activity"}, {"measurement": "DSU (density of BTK protein band, densitometric scanning units)", "setting": "[6]; [10]", "result": 1432}, {"measurement": "PIU (BTK autophosphorylation, phosphorimager units)", "setting": "[6]; [10]", "result": 68}, {"measurement": "reduction of baseline BTK activity in platelets", "setting": "[6]; 30 min at 37° C.", "result": "> 90", "unit": "%"}, {"measurement": "% control inositol 1,4,5-triphosphate production (peak response)", "setting": "[7]; 100 μM LFM-A13 alone, no collagen", "result": 75, "unit": "% control"}, {"measurement": "% control inositol 1,4,5-triphosphate production (peak response)", "setting": "[7]; 100 μM LFM-A13 and 2 μg/ml collagen", "result": 75, "unit": "% control"}, {"measurement": "Ins-1,4,5-P3 levels between 30 and 60 seconds after collagen stimulation", "setting": "[7]; 100 μM pretreatment", "result": "remained at baseline"}, {"measurement": "collagen-stimulated PI-PLC activity", "setting": "[7]; 100 μM, 30 min, 2 μg/ml collagen", "result": "inhibited collagen-stimulated PI-PLC activity"}, {"measurement": "Ins-1,4,5-P3 levels", "setting": "[7]; 100 μM, 30 min pretreatment, 30 seconds after collagen stimulation", "result": "17.8±1.4", "unit": "pmols/10^9 platelets"}, {"measurement": "inhibition at 100 µM", "setting": "[7]; Homo sapiens, Platelet, read-out: % inhibition of inositol 1,4,5-triphosphate production", "result": 100, "unit": "%"}, {"measurement": "collagen-induced platelet aggregation at 100 μM", "setting": "[8]; 100 μM, 30 minute pretreatment, 2 μg/mL collagen", "result": "completely prevented"}, {"measurement": "IC50", "setting": "[8]; Homo sapiens, Platelet, read-out: IC50 inhibition of platelet aggregation, 2 μg/mL collagen", "result": 2780, "unit": "nM"}, {"measurement": "IC50", "setting": "[8]; Homo sapiens, Platelet, read-out: IC50 inhibition of platelet aggregation, 5 μg/mL collagen", "result": 66100, "unit": "nM"}, {"measurement": "platelet response to high and low doses of collagen, PRP", "setting": "[8]; PRP treated 20 min or 24 hours, collagen 2 or 5 μg/mL", "result": "significantly reduced"}, {"measurement": "IC50", "setting": "[8]; read-out: IC50 inhibition of platelet aggregation, 2 μg/mL collagen", "result": "2800 ± 930", "unit": "nM"}]}
